The text below walks through data of paper PMC11191402, “High-Affinity NIR-Fluorescent Inhibitors for Tumor Imaging via Carbonic Anhydrase IX” (Bioconjugate Chemistry, 2024).

One data set deals with T1, human recombinant CAXIV (Homo sapiens, UniProt Q9ULX7).
T1 construct: Most isozymes were truncated, and only the catalytic domains of the proteins were produced; made in house; host or cells: bacterial expression system
Also noted: method as in PMID 36271018. The note with it: FTSA, 37 °C, pH 7.0; cited from earlier work.

Another data set addresses T2, human recombinant CAIII (Homo sapiens, UniProt P07451).
T2 construct: made in house; host or cells: bacterial expression system
Further details: method as in PMID 36271018. The note with it: FTSA, 37 °C, pH 7.0; cited from earlier work.

A further data set concerns the target T3, human recombinant CAIV (Homo sapiens, UniProt P22748).
T3 construct: Most isozymes were truncated, and only the catalytic domains of the proteins were produced; made in house; host or cells: bacterial expression system
Also noted: method as in PMID 36271018. The note with it: FTSA, 37 °C, pH 7.0; cited from earlier work.

The next data set addresses T4, human recombinant CAVB (Homo sapiens, UniProt Q9Y2D0).
T4 construct: Most isozymes were truncated, and only the catalytic domains of the proteins were produced; made in house; host or cells: bacterial expression system
Also noted: method as in PMID 36271018. Conditions: FTSA, 37 °C, pH 7.0; cited from earlier work.

In a further data set the target is T5, human recombinant CAII (Homo sapiens, UniProt P00918).
T5 construct: made in house; host or cells: bacterial expression system
Also noted: method as in PMID 36271018. The note with it: FTSA, 37 °C, pH 7.0; cited from earlier work.

In a further data set the target is T6, human recombinant CAVA (Homo sapiens, UniProt P35218).
T6 construct: Most isozymes were truncated, and only the catalytic domains of the proteins were produced; made in house; host or cells: bacterial expression system
Also noted: method as in PMID 36271018. The note with it: FTSA, 37 °C, pH 7.0; cited from earlier work.

A further data set deals with T7, human recombinant CAVII (Homo sapiens, UniProt P43166).
T7 construct: made in house; host or cells: bacterial expression system
Further details: method as in PMID 36271018. The note with it: FTSA, 37 °C, pH 7.0; cited from earlier work.

A further data set has as its target T8, human recombinant CAVI (Homo sapiens, UniProt P23280).
T8 construct: Most isozymes were truncated, and only the catalytic domains of the proteins were produced; made in house; host or cells: bacterial expression system
Further details: method as in PMID 36271018. The note with it: FTSA, 37 °C, pH 7.0; cited from earlier work.

The next data set concerns the target T9, human recombinant CAXII (Homo sapiens, UniProt O43570).
T9 construct: Most isozymes were truncated, and only the catalytic domains of the proteins were produced; made in house; host or cells: bacterial expression system
Also noted: method as in PMID 36271018. The note with it: FTSA, 37 °C, pH 7.0; cited from earlier work.

The target in data set [1] is T10, CAIX expressed on cell membranes of HeLa cells (Homo sapiens, UniProt Q16790).
T10 construct: an open reading frame for the full-length CAIX protein (1–459 amino acids) without a tag; expressed in transfected cells; host or cells: HeLa cells transfected with pCMV-CAIX (TurboFect), normoxia
Nature of the data set: Fluorescence microscopy staining of live HeLa cells. Conditions: 250 nM compound; pCMV-CAIX-transfected cells, normoxia. Type of data set: cell-based. An excerpt: Live HeLa cell culture was used for visualization of the NIR-fluorescent compound binding to CAIX expressed on cell membranes (Figures 3 and S2). […] Hypoxic conditions were insufficient for CAIX-specific fluorescence detection (Figure S3). Transfected cells expressed 10-fold more CAIX protein than cells grown under hypoxia, as determined by dosing the fluorescein-containing compound GZ19-32. […] We should point out that microphotographs in Figures 3 and S2 were taken at different exposure times to ensure good visualization quality. Nevertheless, all four compounds were suitable for direct visualization of CAIX expressed on transfected cell membranes.
For visualization of CAIX in live cells, HeLa cells were seeded in 12-well plates, and the next day they were transfected with the pCMV-CAIX plasmid to induce CAIX expression under normoxia. The TurboFect Transfection Reagent (Thermo Fisher) was used for this purpose according to manufacturer’s directions. Cells were stained and visualized next day after transfection. Nontransfected cells, grown under normoxia, were used as a control. For the induction of CAIX expression without transfection, cells were cultured under hypoxia for 3 days.
For cell imaging, live cells were incubated with the recombinant monoclonal antibody to CAIX (M75) (Absolute Antibody, #Ab00414–1.1) in the CO2 incubator for 30 min. The antibody stock solution (1 mg/mL) was used at a dilution of 1:150 in FluoroBright (FB)(Thermo Fisher) medium. After washing (3 × 5 min with DMEM in RT, gentle rock), cells were incubated with secondary Alexa Fluor 488 goat antimouse antibodies (2 mg/mL, Thermo Fisher), at a dilution of 1:200 in FB, in a CO2 incubator for 30 min. After washing (3 × 5 min with DMEM in RT and 2 × 1 min with PBS), cells were incubated with NIR-fluorescent inhibitors ([…] in PBS) in a CO2 incubator for 5–8 min. After washing (2 min + 2 × 1 min with PBS), PBS was replaced by FB, and 15 μL of NucBlue Live Cell Stain ReadyProbes reagent (Thermo Fisher) was added per well. After 5 min, cells were observed and photographed using an automated fluorescence microscope EVOS FL Auto (Thermo Fisher).

T7 sequence (P43166 whole entry): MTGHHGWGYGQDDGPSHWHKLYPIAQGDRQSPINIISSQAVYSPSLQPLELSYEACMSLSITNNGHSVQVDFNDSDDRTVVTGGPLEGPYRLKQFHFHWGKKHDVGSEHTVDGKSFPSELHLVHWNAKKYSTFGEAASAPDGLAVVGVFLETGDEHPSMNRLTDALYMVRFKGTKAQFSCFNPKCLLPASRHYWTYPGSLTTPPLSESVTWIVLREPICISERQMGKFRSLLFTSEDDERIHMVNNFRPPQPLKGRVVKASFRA
T3 sequence (P22748 21-285 limits assumed): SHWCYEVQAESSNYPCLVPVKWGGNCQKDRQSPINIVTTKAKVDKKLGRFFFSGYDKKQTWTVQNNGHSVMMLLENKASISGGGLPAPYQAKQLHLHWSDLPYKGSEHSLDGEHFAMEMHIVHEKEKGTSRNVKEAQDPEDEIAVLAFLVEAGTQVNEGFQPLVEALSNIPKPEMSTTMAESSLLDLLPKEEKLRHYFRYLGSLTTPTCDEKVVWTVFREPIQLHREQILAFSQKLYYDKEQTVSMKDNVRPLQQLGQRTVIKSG
T8 sequence (P23280 21-278 limits assumed): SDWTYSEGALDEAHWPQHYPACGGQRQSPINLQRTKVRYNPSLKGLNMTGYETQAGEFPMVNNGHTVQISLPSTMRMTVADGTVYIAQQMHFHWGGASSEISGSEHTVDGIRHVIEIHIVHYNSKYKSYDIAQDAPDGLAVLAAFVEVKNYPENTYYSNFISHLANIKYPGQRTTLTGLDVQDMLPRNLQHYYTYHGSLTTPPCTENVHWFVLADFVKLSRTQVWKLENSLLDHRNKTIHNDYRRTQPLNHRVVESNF
T2 sequence (P07451 whole entry): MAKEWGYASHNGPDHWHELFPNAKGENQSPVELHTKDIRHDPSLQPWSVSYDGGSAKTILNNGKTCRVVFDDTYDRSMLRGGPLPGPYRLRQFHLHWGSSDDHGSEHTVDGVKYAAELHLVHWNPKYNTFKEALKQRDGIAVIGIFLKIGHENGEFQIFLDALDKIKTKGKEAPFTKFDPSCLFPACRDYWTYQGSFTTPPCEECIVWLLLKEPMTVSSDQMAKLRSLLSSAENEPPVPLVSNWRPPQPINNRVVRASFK
T9 sequence (O43570 30-289 limits assumed): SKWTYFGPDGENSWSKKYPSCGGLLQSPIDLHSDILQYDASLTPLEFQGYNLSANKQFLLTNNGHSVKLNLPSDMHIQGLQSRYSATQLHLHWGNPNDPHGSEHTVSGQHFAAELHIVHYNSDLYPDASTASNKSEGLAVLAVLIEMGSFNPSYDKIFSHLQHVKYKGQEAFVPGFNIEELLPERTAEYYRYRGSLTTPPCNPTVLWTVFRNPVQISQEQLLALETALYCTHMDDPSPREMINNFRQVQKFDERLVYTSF
T6 sequence (P35218 39-296 limits assumed): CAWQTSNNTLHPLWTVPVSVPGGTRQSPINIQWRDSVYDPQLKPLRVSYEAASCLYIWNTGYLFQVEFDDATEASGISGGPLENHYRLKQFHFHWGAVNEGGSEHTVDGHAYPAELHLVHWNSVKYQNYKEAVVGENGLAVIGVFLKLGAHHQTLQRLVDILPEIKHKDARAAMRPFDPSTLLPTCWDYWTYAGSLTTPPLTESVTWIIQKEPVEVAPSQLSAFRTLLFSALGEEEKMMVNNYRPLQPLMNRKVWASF
T4 sequence (Q9Y2D0 37-296 limits assumed): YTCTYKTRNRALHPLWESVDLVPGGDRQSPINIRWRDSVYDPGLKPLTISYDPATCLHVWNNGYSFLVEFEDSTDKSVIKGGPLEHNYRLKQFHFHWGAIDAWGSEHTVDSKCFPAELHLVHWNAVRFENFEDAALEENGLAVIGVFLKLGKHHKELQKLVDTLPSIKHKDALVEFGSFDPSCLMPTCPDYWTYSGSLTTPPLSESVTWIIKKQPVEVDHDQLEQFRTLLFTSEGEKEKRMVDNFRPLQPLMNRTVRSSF
T1 sequence (Q9ULX7 20-278 limits assumed): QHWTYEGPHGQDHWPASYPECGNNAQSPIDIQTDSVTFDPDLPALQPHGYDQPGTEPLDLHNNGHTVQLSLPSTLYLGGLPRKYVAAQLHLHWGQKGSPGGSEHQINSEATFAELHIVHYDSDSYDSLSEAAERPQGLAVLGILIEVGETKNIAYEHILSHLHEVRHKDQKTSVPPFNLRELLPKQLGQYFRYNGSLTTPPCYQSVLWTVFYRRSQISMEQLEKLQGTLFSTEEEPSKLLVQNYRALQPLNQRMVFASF

`NS(=O)(=O)c1c(F)c(F)c(S(=O)(=O)CCC(=O)O)c(NC2CCCCCCC2)c1F` [GZ18-23, 3-((2-(Cyclooctylamino)-3,5,6-trifluoro-4-sulfamoylphenyl)sulfonyl)propanoic Acid]: the melting point – broadly, the temperature, or range, at which the solid turns liquid – is 143 to 144 °C. The dissociation constant (Kd) (commonly the equilibrium constant for the complex coming apart) on human recombinant CAXIV is 3 nM. The Kd at human recombinant CAIII is not below 200000 nM. Moreover, the Kd on human recombinant CAIV is 100 nM. Further, at human recombinant CAVB, the Kd is 200 nM. Besides, the Kd on human recombinant CAII is 200 nM. Besides, the Kd on human recombinant CAVA was 10000 nM. The Kd on human recombinant CAVII is 40 nM. Also, at human recombinant CAVI, the Kd was 100 nM. The Kd on human recombinant CAXII was 1.4 nM.

Compound `CC1(C)C(/C=C/C2=C(Oc3ccc(CCC(=O)O)cc3)C(=C/C=C3\N(CCCCS(=O)(=O)[O-])c4ccccc4C3(C)C)/CCC2)=[N+](CCCCS(=O)(=O)[O-])c2ccccc21.[Na+]` [GZ21-20, Sodium 4-((Z)-2-((E)-2-(2-(4-(2-Carboxyethyl)phenoxy)-3-((E)-2-(3,3-dimethyl-1-(4-sulfonatobutyl)-3H-indol-1-ium-2-yl)vinyl)cyclohex-2-en-1-ylidene)ethylidene)-3,3-dimethylindolin-1-yl)butane-1-sulfonate] yielded a melting point of 225 to 228 °C. In data set [1], the “staining of HeLa cells (NIR fluorescence microscopy)” value was “no visual response on transfected cells”.
